Source: publication PMC12750388, “Coumarin-1,2,3-Triazole Conjugates as Molecular Scaffolds for the Selective Induction of ROS-Driven Apoptosis in Cancer Cells in the Development of Pyruvate Kinase M2 Inhibitors” (ACS Omega, 2025)

Tests used:
Hep-G2 = experiment: MTT cell viability assay, Hep-G2; assay type: cell-based, human
SCC-9 cells = experiment: Videomicroscopy by time-lapse; assay type: cell-based, human; conditions: SCC-9, 2 × IC50 (24.58 μM), up to 48 h
Description: Cells were maintained in a controlled chamber containing 5% CO2 and 37 °C. Images were captured every minute and integrated using Framelapse software (Neximo Laboratories, Uttar Pradesh, India).

Hemolysis assay = assay type: cell-based; conditions: isolated human erythrocytes, pH 7.5, read-out: level of hemolysis
Description: A hemolysis assay to evaluate surfactant effects of tested substances was performed using human blood approved by the Research Ethics Committee of Universidade Federal Fluminense (CAAE: 43134721.4.0000.5626). Erythrocytes are isolated upon three repeated centrifugation cycles at 1500 rpm for 15 min. Between each cycle of centrifugation, supernatant was removed, and a pH 7.5 PBS (phosphate-buffered saline) solution supplemented with 10 mM glucose was added to remove lysed erythrocytes. The number of cells was determined in an Automatic Cell Counter (Thermo Fisher, Waltham, MA, USA). Erythrocytes were then plated in 96-well plates at a concentration of 4 × 10^8 cells/well in triplicates, and 10 μL of compounds were added at a final concentration of 300 μM in PBS with glucose (final volume 100 μL). Ten μL of PBS was used as a negative control, and 10 μL of PBS with 0.1% Triton X-100 was used as a positive control. Data reading was performed with EPOCH (BioTek Instruments, Winooski, VT, USA) at an absorbance of 540 nm.

[1] = system: caspases 3 and 7 in SCC-9 cells; experiment: Caspase-Glo 3/7 assay; assay type: cell-based, human; conditions: SCC-9, 2 × IC50, 12 and 24 h
Description: Analysis of activation of caspases 3 and 7 was assessed by using the Caspase-Glo 3/7 Assay Kit (Promega Corporation, Madison, WI, USA; G8090). The reagent provided by the kit causes cell lysis; therefore, parallelly, a cell viability assay using violet crystal was performed to normalize the detection of active caspases by viable cells. Caspases 3 and 7 procedures consisted of seeding 5 × 10^3 SCC-9 cells in a 96-well plate. […] A plate with wells without cells was used as a control. Cells and cell-free wells remained in treatment at times of interest. Then, caspase activity was detected according to the manufacturer’s instructions. Results were obtained using a TD 20/20 luminometer (Turner Designs, Sunnyvale, CA, USA). […] Then the medium was removed, and the wells were gently washed with PBS. PBS was removed, and cells were fixed with 100% alcohol that was removed after 10 min. Cells were stained with 0.05% violet crystal for 10 min. Wells were gently washed with deionized water, and […] methanol was added to each well, followed by agitation of the plate for 10 min. Absorbance of wells was read in an EPOCH (BioTek Instruments, Winooski, VT, USA) at an absorbance of 595 nm.

PKM2 = biological target: T1, PKM2 (Homo sapiens, UniProt P14618); experiment: Quantification of ATP production from PKM2 reaction; assay type: biochemical; conditions: 1 × IC50 of 7f (55.13 μM)
T1 construct: purchased Sigma-Aldrich Co., St. Louis, MO, USA
T1 sequence (P14618 whole entry): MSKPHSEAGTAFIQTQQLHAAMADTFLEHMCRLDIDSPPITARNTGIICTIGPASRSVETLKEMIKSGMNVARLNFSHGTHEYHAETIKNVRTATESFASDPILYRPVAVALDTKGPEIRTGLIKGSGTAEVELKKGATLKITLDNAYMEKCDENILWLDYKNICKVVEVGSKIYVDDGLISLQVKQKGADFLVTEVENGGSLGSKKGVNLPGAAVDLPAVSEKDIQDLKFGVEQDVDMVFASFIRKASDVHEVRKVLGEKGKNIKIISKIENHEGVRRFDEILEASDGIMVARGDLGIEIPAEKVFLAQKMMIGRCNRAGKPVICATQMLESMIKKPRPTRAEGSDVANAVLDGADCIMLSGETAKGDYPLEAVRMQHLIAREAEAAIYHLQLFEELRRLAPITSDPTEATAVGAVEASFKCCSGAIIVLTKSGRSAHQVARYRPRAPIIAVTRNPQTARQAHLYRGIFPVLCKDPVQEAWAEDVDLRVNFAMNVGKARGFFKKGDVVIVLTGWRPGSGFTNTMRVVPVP
Description: The measurement of PKM2 activity through ATP production was conducted to confirm whether the enzymatic inhibition observed in the previous assay was indeed due to PKM2. The master mix was prepared as indicated above. In a microtube containing the master mix prepared in the presence of 1 × IC50 7f, the control received the addition of 0.5 mM PEP for 3 min. Afterward, CellTiter-Glo reagent (Promega, Madison, WI, USA) was added as indicated by the manufacturer’s instructions, and the samples were kept shielded from light for 2 min. After the specified time, the sample was taken for reading in a Turner Designs TD 2020 luminometer (Turner Designs, Sunnyvale, CA, USA).

Q: For `O=C1C=C(OCc2cn(CCCOc3cc(=O)oc4ccccc34)nn2)C(=O)c2ccccc21` [Compound 7f, 2-((1-(3-((2-Oxo-2H-chromen-4-yl)oxy)propyl)-1H-1,2,3-triazol-4-yl)methoxy)naphthalene-1,4-dione], which IC50 (Hep-G2; HepG2, MTT, human hepatocellular carcinoma) is on record?
A: 16 µM

Q: What about the “SI Hep-G2” value (Hep-G2; versus human gingival fibroblast) of the same molecule?
A: 1.42

Q: And the “proliferation and morphology by video microscopy” value (SCC-9 cells)?
A: pronounced inhibition of proliferation

Q: And the hemolysis at 300 µM (Hemolysis assay)?
A: ~5%

Q: And the “caspases 3 and 7 activity, luminescent signal versus DMSO” value [1]?
A: approximately 2 fold

Q: What about the inhibition at 55.13 µM (PKM2) of the same molecule?
A: ~50%
